The source of these data is ChEMBL document CHEMBL4007428, “Modulating the selectivity of matriptase-2 inhibitors with unnatural amino acids” (Eur J Med Chem, 2017).

The nature of data set [1]: Stability in mouse plasma assessed as parent compound remaining after 24 hrs. Format: ADME, cell-free. The note with it: read-out: Stability.
Data set [2] deals with T1, Transmembrane protease serine 6 (Homo sapiens, UniProt Q8IU80).
T1 sequence (Q8IU80 whole entry): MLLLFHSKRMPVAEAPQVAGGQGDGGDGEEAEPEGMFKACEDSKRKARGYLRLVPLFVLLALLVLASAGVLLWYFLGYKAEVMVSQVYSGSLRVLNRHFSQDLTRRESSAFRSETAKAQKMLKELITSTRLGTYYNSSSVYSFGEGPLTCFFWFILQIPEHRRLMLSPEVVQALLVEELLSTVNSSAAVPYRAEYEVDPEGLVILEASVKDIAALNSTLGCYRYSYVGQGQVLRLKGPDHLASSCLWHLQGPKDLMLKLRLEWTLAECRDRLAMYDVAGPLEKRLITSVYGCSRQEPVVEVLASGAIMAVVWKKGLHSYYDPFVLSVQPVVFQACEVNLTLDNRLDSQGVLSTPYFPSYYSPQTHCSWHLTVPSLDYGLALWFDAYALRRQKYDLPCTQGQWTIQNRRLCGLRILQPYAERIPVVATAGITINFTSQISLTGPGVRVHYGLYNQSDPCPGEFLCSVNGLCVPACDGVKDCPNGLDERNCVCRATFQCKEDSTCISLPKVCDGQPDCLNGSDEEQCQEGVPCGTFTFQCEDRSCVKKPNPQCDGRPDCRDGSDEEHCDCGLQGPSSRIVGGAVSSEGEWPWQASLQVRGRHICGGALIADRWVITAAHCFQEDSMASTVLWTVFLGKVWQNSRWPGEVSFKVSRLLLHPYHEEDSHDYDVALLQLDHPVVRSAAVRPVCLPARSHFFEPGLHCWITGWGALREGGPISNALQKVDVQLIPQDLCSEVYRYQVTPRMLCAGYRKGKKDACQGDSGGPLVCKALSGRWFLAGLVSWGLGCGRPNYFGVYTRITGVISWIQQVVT
Nature of the data set: Inhibition of recombinant human C-terminal V5-His-tagged matriptase-2 expressed in Drosophila S2 cells using Boc-Gln-Ala-ArgAMC as substrate measured for 1200 mins by fluorescence assay.

Data set [3] addresses T2, Suppressor of tumorigenicity 14 protein (Homo sapiens, UniProt Q9Y5Y6).
T2 sequence (Q9Y5Y6 whole entry): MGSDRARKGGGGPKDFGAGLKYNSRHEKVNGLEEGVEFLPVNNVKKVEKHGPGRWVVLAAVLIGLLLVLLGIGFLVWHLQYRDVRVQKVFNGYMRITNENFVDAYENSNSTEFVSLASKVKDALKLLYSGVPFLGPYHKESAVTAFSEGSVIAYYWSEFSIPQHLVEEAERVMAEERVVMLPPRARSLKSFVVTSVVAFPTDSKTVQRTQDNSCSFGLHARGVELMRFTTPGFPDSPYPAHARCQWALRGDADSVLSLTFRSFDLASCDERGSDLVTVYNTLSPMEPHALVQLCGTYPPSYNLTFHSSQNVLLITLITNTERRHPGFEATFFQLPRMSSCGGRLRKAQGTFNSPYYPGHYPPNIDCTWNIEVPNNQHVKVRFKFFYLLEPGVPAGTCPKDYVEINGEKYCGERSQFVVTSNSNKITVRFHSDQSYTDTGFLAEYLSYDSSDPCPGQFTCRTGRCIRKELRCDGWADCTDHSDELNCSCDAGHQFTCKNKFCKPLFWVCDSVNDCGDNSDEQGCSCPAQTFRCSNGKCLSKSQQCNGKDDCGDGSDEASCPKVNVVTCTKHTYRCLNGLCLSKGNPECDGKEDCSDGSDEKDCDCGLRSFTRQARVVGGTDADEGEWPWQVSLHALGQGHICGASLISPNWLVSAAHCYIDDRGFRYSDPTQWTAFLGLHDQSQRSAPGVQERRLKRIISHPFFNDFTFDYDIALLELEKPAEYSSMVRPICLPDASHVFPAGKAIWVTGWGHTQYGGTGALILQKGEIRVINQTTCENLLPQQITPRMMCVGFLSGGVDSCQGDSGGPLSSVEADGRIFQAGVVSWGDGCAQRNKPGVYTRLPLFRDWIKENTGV
Description: Inhibition of recombinant human matriptase (596 to 855 residues) expressed in Escherichia coli using Boc-Gln-Ala-ArgAMC as substrate measured for 1200 mins by fluorescence assay

For a further data set, the species on record is Homo sapiens. Nature of the data set: Selectivity ratio of Ki for recombinant human matriptase (596 to 855 residues) expressed in Escherichia coli to Ki for recombinant human C-terminal V5-His-tagged matriptase-2 expressed in Drosophila S2 cells.
Data set [4] concerns the target T3, Transmembrane protease serine 6 (Homo sapiens) (UniProt Q8IU80).
T3 sequence (whole entry): T1 sequence (Q8IU80 whole entry)
As to the kind of experiment: Reversible inhibition of recombinant human C-terminal V5-His-tagged matriptase-2 expressed in Drosophila S2 cells assessed as dissociation half time using Boc-Gln-Ala-ArgAMC as substrate measured for 1200 mins by fluorescence assay.

A word on the Ki: it is the equilibrium dissociation constant of an inhibitor or competing ligand from its target.

Regarding `CC(C)[C@H](NC(=O)[C@H](Cc1cscn1)NC(=O)CCc1ccccc1)C(=O)N[C@@H](CCCNC(=N)N)C(=O)c1nc2ccccc2s1`, the remaining at 24 h in data set [1] was greater than 75%. In addition, the results for the Ki in data set [2] and in data set [3] were 0.4 to 1.2 nM and 4 to 12 nM, respectively. In addition, the Ratio Ki in the data set listed under Homo sapiens stood at 10. Besides, the T1/2 in data set [4] was found to be 48 min.
Regarding `CC[C@H](NC(=O)[C@H](CCc1ccccc1)NC(=O)CCc1ccccc1)C(=O)N[C@@H](CCCNC(=N)N)C(=O)c1nc2ccccc2s1`, the Ki was in the range of 1.5 to 1.6 nM in data set [2] and 20 to 21 nM in data set [3]. Also, in the data set listed under Homo sapiens, the Ratio Ki turned out to be 13. For the same compound, in data set [4], the T1/2 came to 18 min.
On to `CC(C)[C@H](NC(=O)C(Cc1ccc(O)cc1)NC(=O)CCc1ccc(O)cc1)C(=O)N[C@@H](CCCNC(=N)N)C(=O)c1nc2ccccc2s1` (single isomer, unassigned), for which the remaining at 24 h in data set [1] came to 40%. The inhibitory constant (Ki) in data set [2] is 1.2 to 2 nM; in data set [3], 34 to 38 nM. The Ratio Ki in the data set listed under Homo sapiens worked out at 17. For the same compound, the T1/2 in data set [4] stood at 24 min.
